Experimental data reported in patent publication US20230167450A1, “BIFUNCTIONAL MOLECULES AND METHODS OF USING THEREOF” (Flagship Pioneering, Inc., priority 2020, published 2023).

Tested on: mRNA encoding Renilla Luciferase protein
Test: Renilla luciferase activity (protein expression) in HEK293T cells co-transfected with pRL-TK target plasmid and BTK-fused effector plasmid
Assay type: cell-based, human
Settings: ASO conjugated at the 5′ end with Ibrutinib-MPEA; effector fused to BTK
Description: The Ibrutinib-conjugated ASOs described in Example 4a (shown in Table 5 below) were co-transfected into human cells along with the plasmid expressing the target Renilla luciferase described in example 4b, as well as the plasmid expressing BTK-YTHDF1 effector protein described example 4c.
A 96-well cell culture plate with 70% confluent HEK293T cells was transfected with the 50 nanograms of the target luciferase plasmid and 100 nanograms of the plasmid expressing the BTK-YTHDF1 effector, using Lipofectamine 2000 (Thermo Fisher Scientific) according to the manufacturer's instruction. After 24 hours, targeting (test) and non-targeting (control) ASOi were transfected separately into the cells at the final concentration of 100 nM using Lipofectamine RNaiMax (Thermo Fisher Scientific) according to the manufacturer's instruction. For each condition, cells were allowed to recover and are subsequently analyzed 48 hours after the transfection of ASOis.
Pierce Renilla Luciferase Glow Assay Kit (Thermo Fisher Scientific) was used for measuring the luciferase activity corresponding to protein expression in each condition, according to manufacturer's instruction. The luminescence was measured and quantified by a GloMax plate reader and its integrated software (Promega Corp.), according to manufacturer's instruction (FIG. 4). […]

| Molecule | Effector(s) increasing translation |
| --- | --- |
| ASO3: Rluc RNA-targeting ASO, TTCTGCAGCTTAAGTTCGA, 2′-MOE phosphorothioate; tested conjugated at 5′ end with Ibrutinib-MPEA (*/i2MOErT/*/i2MOErT/*/i2MOErC/*/i2MOErT/*/i2MOErG/*/i2MOErC/*/i2MOErA/*/i2MOErG/*/i2MOErC/*/i2MOErT/*/i2MOErT/*/i2MOErA/*/i2MOErA/*/i2MOErG/*/i2MOErT/*/i2MOErT/*/i2MOErC/*/i2MOErG/*/32MOErA/; as printed in the source, key not given here) | YTHDF1, EIF4E |
| ASO1: Non-targeting (scramble) control ASO, …, 2′-MOE phosphorothioate; tested conjugated at 5′ end with Ibrutinib-MPEA (nucleic acid, Cy5-labeled IVT RNA) CCUUGAAAUCCAUGACGCAGGGAGAAUUGCGUCAUUUAAAGCCUAGUUAACGCAUUUACUAAACGCAGACGAAAAUGGAAAGAUUAAUUGGGAGUGGUAGGAUGAAACAAUUUGGAGAAGAUAGAAGUUUGAAGUGGAAAACUGGAAGACAGAAGUACGGGAAGGCGAA | YTHDF1, EIF4E |
